In PMC11438102, “Modulation of cannabinoid receptor 2 alters neuroinflammation and reduces formation of alpha-synuclein aggregates in a rat model of nigral synucleinopathy” (Journal of Neuroinflammation, 2024):

Assays:
[1] = test system: IBA1, CD68, CD163, MHCII in substantia nigra; experiment: Immunohistochemistry/immunofluorescence of immune cell markers in substantia nigra; format: in vivo; conditions: rat low cohort, 6 mg/kg i.p. daily 7 weeks, vs vehicle
Experimental: Brains were post-fixed in 4%PFA for 48 h and transferred to 30% sucrose and cut at 40 μm on a freezing microtome. In brief, endogenous peroxidase was quenched with 3% hydrogen peroxide, blocked with 8% normal serum, avidin (Vector Cat#SP-2001) and 0.1% Triton-X and incubated overnight at 4°C with biotin (Vectorlabs Cat#SP-2001), normal serum and primary antibodies specific for Asyn (Clone 4B12; BioLegend Cat# 807801, RRID: AB_2564730), pSer129 Asyn (Clone EP1536Y; Abcam Cat# ab51253, RRID: AB_869973), CD68 (Bio-Rad Cat# MCA341R, RRID: AB_2291300), MHCII (Bio-Rad Cat# MCA46GA, RRID: AB_567369), and CD163 (Bio-Rad Cat# MCA342A, RRID: AB_2074557). Tissue was incubated in appropriate biotinylated secondary antibodies (1:200), amplified with Vectastain ABC kit (Vectorlabs Cat#PK-6100) and developed with diaminobenzidine tablets or diaminobenzidine drop kit with nickel (Vector Cat#SK-4100) for CD68 immunostaining.
Tissue was blocked with 5% normal serum in TBS + 0.25% Triton-X and further incubated overnight at 4°C with primary antibodies specific for IBA1 (FUJIFILM Wako Pure Chemical Corporation Cat# 019-19741, RRID: AB_839504) and tyrosine hydroxylase (ImmunoStar Cat# 22941, RRID: AB_572268) to identify microglia in the substantia nigra or tyrosine hydroxylase (Millipore Cat# AB152, RRID: AB_390204) and Asyn (Clone 4B12; BioLegend Cat# 807801, RRID: AB_2564730) to evaluate accuracy of stereotaxic injection targets. Tissue was incubated in secondary antibodies conjugated to appropriate fluorophores for 2 h at room temperature and mounted tissue with Vectashield, an aqueous mounting media with DAPI (Vectorlabs Cat#H-2000).
IBA1-positive total immune cell counts and area of immunoreactivity (ir) were quantified using Nikon NIS elements software. Four fluorescent z-stacks of IBA1 stained nigra were collected from images of lesioned and non-lesioned nigra from targeted low cohort animals using a Nikon Eclipse 90i microscope and maximum project images were used for quantification. CD68-ir and CD163-ir was quantified from two to three microphotographs from each animal throughout the substantia nigra using ImageJ particle count analysis. Microphotographs of the nigra immunochemically stained for either Asyn, pSer129 Asyn and proteinase K-resistant Asyn were quantified using Image J (version 1.54f). Regions of Interest (ROIs) were drawn on two to three images throughout the nigra and optical density measurements collected and averaged for each animal. Measurements were normalized to the vehicle group so that data from all cohorts could be combined.

PBMCs = experiment: Multicolor flow cytometry of PBMCs (high cohort); format: in vivo, rat
Experimental: An additional cohort of rats (termed “high cohort”) was evaluated to determine effects of SMM-189 on immune cell populations in the brain, resident or infiltrating, and the periphery as measured by flow cytometry (Fig. 1). To ensure infiltrating peripheral immune cells, rats were stereotaxically injected with a higher titer of AAV2/5-human WT Asyn (4.6 × 10^12 vg/mL) and underwent an identical drug treatment timeline with animals sacrificed at 4 (SMM-189: n = 5; vehicle: n = 6) and 8 weeks (SMM-189: n = 7; vehicle: n = 7). At sacrifice, animals were deeply anesthetized with euthasol (i.p., 150 mg/kg) and rapid decapitation performed using a sharp guillotine. Brains were collected at endpoints, and brain immune cells isolated and evaluated using multicolor flow cytometry. Additionally, blood was collected at baseline, 4 and 8 weeks (SMM-189: n = 13; vehicle: n = 13) after stereotaxic surgery for PBMCs isolation to immunophenotype using flow cytometry and for plasma evaluation of SMM-189.
PBMCs were isolated from blood of low cohort rats at euthanasia (8 weeks) for qPCR analysis of immune genes and from blood of high cohort rats at baseline, 4 and 8 weeks after AAV2/5-human WT Asyn and evaluated with flow cytometry for a longitudinal immunophenotype assessment. Red blood cells were lysed using 1x RBC lysis buffer (Biolegend Cat#420301) for 5 min in the dark. Lysis buffer was neutralized by adding 1x HBSS (Gibco Cat#14175095). Cells were pelleted by centrifugation at 400g for 5 min, supernatant removed, and cells washed with HBSS. For the high cohort, cells were resuspended in 200μL of PBS and transferred to a 96-well v-bottom plate for flow cytometry staining. For low cohort, 10,000 cells were lysed in 600μL RLT lysis buffer (Qiagen Cat#79216) + 1% BME, further homogenized by centrifugation through a QiaShredder column (2 min at 21,130g). Lysate was then stored at -80°C and later processed for RNA extraction.
Peripheral and central immune cell staining was performed similarly as previously published protocols. In brief, immune cells were washed and resuspended in PBS, then incubated for 30 min at room temperature in LIVE/DEAD Fixable Red Dead cell stain (ThermoFisher Scientific Cat#L23102; 1:2000). Following two washes in PBS, Fc receptors were blocked with anti-rat CD32 Fc block diluted 1:100 in FACS buffer (1mM EDTA and 0.1% sodium azide in PBS) for 15 min at 4°C. PBMCs were stained for separate myeloid and lymphoid panels and brain immune cells stained with an antibody panel to identify microglia, monocytes and lymphocytes (Table S1-S3). Fluorophore conjugated antibodies diluted with FACS buffer were incubated at 4 °C for 20 min. Cells stained for surface myeloid markers were fixed in 1% PFA for 25 min and washed in FACS.
PBMCs stained with lymphoid panel were further probed intracellularly for transcriptional marker Foxp3 to label […] T cells. […] Then washed and resuspended in FACs buffer. All samples had 10uL of AccuCheck Counting beads (ThermoFisher Cat#PCB100) added to final suspension and cells were run on a LSRII Instrument (BD Biosciences, Franklin Lakes, NJ) with FACSDiva software (BD Biosciences). Results were analyzed using FlowJo 10.8.1 software and brain immune populations of monocytes (classical and non-classical), lymphocytes (CD4 + and CD8+) or microglia and PBMC populations defined by specific strategies (Figure S1-S3).
For PBMC analysis, raw frequencies were normalized across serial runs against vehicle-treated values using the following equation: Raw frequency / (average vehicle frequencies of specific run / average baseline frequencies). For brain immune cell analysis of 8 weeks, samples could not be collected and ran the same day so frequencies were normalized across treatment group at each timepoint using the following equation: raw frequency / (average treatment frequency of specific run 1 / average treatment frequency of specific run 2). […]

## O=C(c1ccccc1)c1cc(O)c(-c2cc(Cl)cc(Cl)c2)c(O)c1 [SMM-189]
[1]
  IBA1 counts and area in nigra, effect of treatment: not a significant effect of treatment
  intensity or area coverage of MHCII in the lesioned nigra: No differences
[1]; AAV-injected nigra
  nigral CD68-ir particle counts: increased
[1]; lesioned nigra
  CD163 in the nigra: decreased
PBMCs; 4 weeks, vs control
  MHCII MFI on CD43-His48+ classical monocytes: increased
PBMCs; 8 weeks compared to own baseline
  frequencies of Tregs (CD4+Foxp3+; CD4+Foxp3+CD25+): elevated
PBMCs; 8 weeks, vs vehicle
  granulocytes: decreases
  wound-healing non-classical monocytes (CD43+): increases
PBMCs; between treatments
  Lymphocyte frequencies of CD4 or CD8 populations (or the CD4 to CD8 ratio): did not reveal significant differences
PBMCs; vs vehicle
  counts of both CD4 and CD8+ T cells: decreased
PBMCs; weeks 4 and 8, vs vehicle
  circulating classically-activated monocytes (CD43-His48+): reduced
